Consider 30 compounds from the Kinase Knowledgebase extract (Sharma et al. 2016).

Chain of MAPK14 (human) (Q16539 whole entry, looked up): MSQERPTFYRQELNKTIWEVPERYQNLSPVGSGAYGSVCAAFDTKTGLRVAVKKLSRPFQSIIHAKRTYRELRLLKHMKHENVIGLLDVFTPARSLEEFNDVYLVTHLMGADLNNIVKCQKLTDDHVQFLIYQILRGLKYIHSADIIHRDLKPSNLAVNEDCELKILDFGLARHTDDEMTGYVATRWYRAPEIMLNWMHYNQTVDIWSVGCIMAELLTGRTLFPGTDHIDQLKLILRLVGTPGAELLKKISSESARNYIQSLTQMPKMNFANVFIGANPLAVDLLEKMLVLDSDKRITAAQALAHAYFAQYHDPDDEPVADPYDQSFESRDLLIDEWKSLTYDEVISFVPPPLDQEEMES

The first experiment has as its target MAPK14 (human) (UniProt Q16539). The experiment in a line: Inhibition of MAPK14 Kinase Activity.
Settings: not given
A word on the IC50: it is the concentration that gives 50% inhibition. Low readings indicate inhibition by little substance, high ones a need for much substance. Take `CON(C)C(=O)CN1CCN(C(=O)c2cc(C(C)(C)C)sc2NC(=O)Nc2ccc(F)cc2Cl)CCC1=O`: the IC50 is less than 5 µM.
`CC(C)(C)c1cc(C(=O)N2CCNC(=O)CC2)c(NC(=O)Nc2cccnc2Cl)s1` showed an IC50 of less than 5 µM.
Same read-out and setting: with `CCC1(C)C(=O)NCCN1C(=O)c1cc(C(C)(C)C)sc1NC(=O)Nc1ccc(F)cc1Cl` (stereo not given) the figure was less than 5 µM; with `CC(C)(C)c1cc(C(=O)N2CCNC(=O)C2(C)C)c(NC(=O)Nc2ccc3c(c2Cl)OCO3)s1`, less than 5 µM; with `CC(C)(C)c1nc(C(=O)N2CCNS(=O)(=O)CC2)c(NC(=O)Nc2cccc(Cl)c2Cl)s1`, less than 5 µM.
The compound `CN(C)CCNC(=O)CN1CCN(C(=O)c2sc(C(C)(C)C)cc2NC(=O)Nc2ccc(F)c(Cl)c2Cl)C(C)(C)C1=O` gave an IC50 of less than 5 µM.
Same read-out and setting: with `CN(C)CCN1CCN(C(=O)c2[nH]c(C(C)(C)C)cc2NC(=O)Nc2cccc(Cl)c2Cl)CCC1=O` the figure was less than 5 µM; with `CCCNC(=O)CN1CCN(C(=O)c2cc(C(C)(C)C)sc2NC(=O)Nc2cccc(Cl)c2Cl)C(C)(C)C1=O`, less than 5 µM; with `COC(=O)c1ccc(NC(=O)Nc2cc(C(C)(C)C)sc2C(=O)N2CCNC(=O)C2(C)C)c(Cl)c1`, less than 5 µM.
Same read-out and setting: then `CCC1(C)C(=O)N(CC(=O)N2CCN(C)CC2)CCN1C(=O)c1cc(C(C)(C)C)sc1NC(=O)Nc1cccc(Cl)c1Cl` (stereo not given), with less than 5 µM.
Still for that read-out and setting: then `CN(C)CCCCCN1CCN(C(=O)c2cc(C(C)(C)C)sc2NC(=O)Nc2cccc(Cl)c2Cl)C(C)(C)C1=O`, with less than 5 µM.
In the case of `CC(C)(C)c1cc(C(=O)N2CCN(CC(=O)NCC(O)CO)C(=O)C2(C)C)c(NC(=O)Nc2cccc(Cl)c2Cl)s1` (stereo not given), the IC50 is less than 5 µM.
Same read-out and setting: then `CC(C)(C)c1cc(C(=O)N2CCNC(=O)CC2)c(NC(=O)Nc2cccc(Cl)c2Cl)[nH]1`, with less than 5 µM.
On the same count and under the same terms, with `CC(C)(C)c1cc(C(=O)N2CCNC(=O)CC2)c(NC(=O)Nc2ccc(Cl)cc2Cl)s1` the figure was less than 5 µM.
Same read-out and setting: with `CN(C)CCN1CCN(C(=O)c2cc(C(C)(C)C)sc2NC(=O)Nc2cccnc2Cl)CCC1=O` the figure was less than 5 µM; with `CC(C)(C)c1cc(C(=O)N2CCNC(=O)C2(C)C)c(NC(=O)Nc2ccc(Cl)cc2Cl)s1`, less than 5 µM; with `CONC(=O)CC1(C)C(=O)NCCN1C(=O)c1cc(C(C)(C)C)sc1NC(=O)Nc1ccc(F)c(Cl)c1Cl` (stereo not given), less than 5 µM.
Compound `CN(C)CCN1CCN(C(=O)c2cc(C(C)(C)C)sc2NC(=O)Nc2ccc(F)c(F)c2Cl)C(C)(C)C1=O` gave an IC50 of less than 5 µM.
On the same count and under the same terms, with `Cc1cccc(NC(=O)Nc2sc(C(C)(C)C)cc2C(=O)N2CCNC(=O)C2(C)C)c1Cl` the figure was less than 5 µM; with `CN(C)CCN1CCN(C(=O)c2[nH]c(C(C)(C)C)cc2NC(=O)Nc2ccc(F)c(Cl)c2Cl)CCC1=O`, less than 5 µM.
The same measure, in the same setting: with `CC(C)(C)c1cc(C(=O)N2CCNC(=O)C2(C)C)c(NC(=O)Nc2ccccc2C(C)(C)C)s1` the figure was less than 5 µM; with `CON(C)C(=O)CN1CCN(C(=O)c2cc(C(C)(C)C)sc2NC(=O)Nc2ccc(F)c(Cl)c2Cl)C(C)(C)C1=O`, less than 5 µM.
Still for that read-out and setting: with `CC(C)(C)c1cc(C(=O)N2CCNC(=O)C23CCC3)c(NC(=O)Nc2ccc(F)c(Cl)c2Cl)s1` the figure was less than 5 µM; with `O=C(Nc1cc(C(F)(F)F)c(Cl)cc1C(=O)N1CCS(=O)(=O)CC1)Nc1cccc(Cl)c1Cl`, less than 5 µM.

The same experiment, now with this note: concentration not given here.
For orientation: inhibition means the relative decrease from the control value, in per cent. The low end stands for a weak effect, the high end for a strong effect. Turning to `COc1ccc(NC(=O)Nc2sc(C(C)(C)C)cc2C(=O)N2CCNC(=O)CC2)cc1Cl`, the inhibition was 76 to 100%.
Same read-out and setting: with `CNC(=O)Nc1cc(C(C)(C)C)sc1C(=O)N1CCNC(=O)CC1` the figure was 0 to 25%; with `CC(C)(C)c1cc(C(=O)N[C@@H]2CC(=O)NC2=O)c(NC(=O)Nc2ccc3ccccc3c2)s1`, 76 to 100%; with `CC1(C)OCC(CN2CCN(C(=O)c3cc(C(C)(C)C)sc3NC(=O)Nc3cccc(Cl)c3Cl)CCC2=O)O1` (stereo not given), 76 to 100%.
The same measure, in the same setting: with `CC(C)(C)c1cc(C(=O)N2CCNS(=O)(=O)CC2)c(NC(=O)NC(C)(C)c2ccccc2)s1` the figure was 51 to 75%.
`Cn1ccc(NC(=O)Nc2sc(C(C)(C)C)cc2C(=O)N2CCNS(=O)(=O)CC2)n1` gave an inhibition of 26 to 50%.
